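Step 1: Grow cells in 96-well plates. Step 2: Expose to compound for 48 hours at 5 concentrations. Step 3: Interpolate endpoints linearly; if unreached, use highest concentration. TGI: concentration producing complete growth inhibition.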
Experiments:
Test in all cases: NCI-60 cell line screen, 48 h
MDA-N = test system: MDA-N
MCF7 breast = test system: MCF7 breast
NCI-H522 lung = test system: NCI-H522 lung
HOP-92 NSCLC = test system: HOP-92 NSCLC
A498 renal = test system: A498 renal
PC-3 prostate = test system: PC-3 prostate
NCI-H226 lung = test system: NCI-H226 lung
NCI/ADR-RES ovarian = test system: NCI/ADR-RES ovarian
HCC-2998 colon = test system: HCC-2998 colon
U251 CNS = test system: U251 CNS
MALME-3M melanoma = test system: MALME-3M melanoma
NCI-H23 lung = test system: NCI-H23 lung
HCT-15 colon = test system: HCT-15 colon
HS 578T breast = test system: HS 578T breast
TK-10 renal = test system: TK-10 renal
SF-268 CNS = test system: SF-268 CNS
MDA-MB-435 = test system: MDA-MB-435
IGROV1 ovarian = test system: IGROV1 ovarian
SF-539 CNS = test system: SF-539 CNS
SK-MEL-28 melanoma = test system: SK-MEL-28 melanoma
HL-60(TB) leukemia = test system: HL-60(TB) leukemia
OVCAR-3 ovarian = test system: OVCAR-3 ovarian
EKVX NSCLC = test system: EKVX NSCLC
LOX IMVI melanoma = test system: LOX IMVI melanoma
UACC-257 melanoma = test system: UACC-257 melanoma
HOP-62 NSCLC = test system: HOP-62 NSCLC
HCT-116 colon = test system: HCT-116 colon
HT29 colon = test system: HT29 colon
UO-31 renal = test system: UO-31 renal
SK-MEL-5 melanoma = test system: SK-MEL-5 melanoma
786-0 renal = test system: 786-0 renal
K-562 leukemia = test system: K-562 leukemia
KM12 colon = test system: KM12 colon
SK-MEL-2 melanoma = test system: SK-MEL-2 melanoma
M14 melanoma = test system: M14 melanoma
UACC-62 melanoma = test system: UACC-62 melanoma
COLO 205 colon = test system: COLO 205 colon
NCI-H460 lung = test system: NCI-H460 lung
SF-295 CNS = test system: SF-295 CNS
ACHN renal = test system: ACHN renal
MDA-MB-231 breast = test system: MDA-MB-231 breast
MOLT-4 leukemia = test system: MOLT-4 leukemia
CCRF-CEM leukemia = test system: CCRF-CEM leukemia
SNB-75 CNS = test system: SNB-75 CNS
OVCAR-5 ovarian = test system: OVCAR-5 ovarian
A549 NSCLC = test system: A549 NSCLC
SR leukemia = test system: SR leukemia
DU-145 prostate = test system: DU-145 prostate
BT-549 breast = test system: BT-549 breast
T-47D breast = test system: T-47D breast
SN12C renal = test system: SN12C renal
RXF 393 renal = test system: RXF 393 renal
RPMI-8226 leukemia = test system: RPMI-8226 leukemia
OVCAR-8 ovarian = test system: OVCAR-8 ovarian
OVCAR-4 ovarian = test system: OVCAR-4 ovarian
CAKI-1 renal = test system: CAKI-1 renal
SW-620 colon = test system: SW-620 colon
SK-OV-3 ovarian = test system: SK-OV-3 ovarian
SNB-19 CNS = test system: SNB-19 CNS

O=C(Nc1ccc(Nc2ccc3c(c2)C(=O)c2ccccc2C3=O)c2c1C(=O)c1ccccc1C2=O)c1ccccc1
TGI (MDA-N): > 100 µM | TGI (MCF7 breast): > 100 µM | TGI (NCI-H522 lung): > 42.1 µM | TGI (HOP-92 NSCLC): > 100 µM | TGI (A498 renal): > 100 µM | TGI (PC-3 prostate): > 100 µM | TGI (NCI-H226 lung): > 100 µM | TGI (NCI/ADR-RES ovarian): > 100 µM | TGI (HCC-2998 colon): 86.9 µM | TGI (U251 CNS): 98.7 µM | TGI (MALME-3M melanoma): > 100 µM | TGI (NCI-H23 lung): > 100 µM | TGI (HCT-15 colon): > 100 µM | TGI (HS 578T breast): > 91.9 µM | TGI (TK-10 renal): > 100 µM | TGI (SF-268 CNS): > 100 µM | TGI (MDA-MB-435): > 100 µM | TGI (IGROV1 ovarian): > 100 µM | TGI (SF-539 CNS): > 100 µM | TGI (SK-MEL-28 melanoma): > 100 µM | TGI (HL-60(TB) leukemia): > 100 µM | TGI (OVCAR-3 ovarian): > 100 µM | TGI (EKVX NSCLC): > 100 µM | TGI (LOX IMVI melanoma): > 100 µM | TGI (UACC-257 melanoma): > 100 µM | TGI (HOP-62 NSCLC): > 100 µM | TGI (HCT-116 colon): > 100 µM | TGI (HT29 colon): > 100 µM | TGI (UO-31 renal): > 100 µM | TGI (SK-MEL-5 melanoma): > 100 µM | TGI (786-0 renal): > 100 µM | TGI (K-562 leukemia): > 100 µM | TGI (KM12 colon): > 100 µM | TGI (SK-MEL-2 melanoma): > 30.5 µM | TGI (M14 melanoma): > 100 µM | TGI (UACC-62 melanoma): > 100 µM | TGI (COLO 205 colon): > 100 µM | TGI (NCI-H460 lung): 35.4 µM | TGI (SF-295 CNS): > 100 µM | TGI (ACHN renal): > 100 µM | TGI (MDA-MB-231 breast): > 100 µM | TGI (MOLT-4 leukemia): > 69.3 µM | TGI (CCRF-CEM leukemia): > 72.8 µM | TGI (SNB-75 CNS): 58.1 µM | TGI (OVCAR-5 ovarian): > 100 µM | TGI (A549 NSCLC): > 100 µM | TGI (SR leukemia): 17.1 µM | TGI (DU-145 prostate): > 100 µM | TGI (BT-549 breast): > 100 µM | TGI (T-47D breast): > 100 µM | TGI (SN12C renal): > 100 µM | TGI (RXF 393 renal): > 96.6 µM | TGI (RPMI-8226 leukemia): > 100 µM | TGI (OVCAR-8 ovarian): > 100 µM | TGI (OVCAR-4 ovarian): > 100 µM | TGI (CAKI-1 renal): > 100 µM | TGI (SW-620 colon): > 100 µM | TGI (SK-OV-3 ovarian): > 100 µM | TGI (SNB-19 CNS): > 100 µM

Cc1ccc(N=NC(=Nc2ccc(F)cc2)c2ccc(N(CCC#N)CCC#N)cc2)cc1
TGI (MDA-N): > 100 µM | TGI (MCF7 breast): > 100 µM | TGI (NCI-H522 lung): 63.7 µM | TGI (HOP-92 NSCLC): > 100 µM | TGI (A498 renal): > 100 µM | TGI (PC-3 prostate): > 100 µM | TGI (NCI-H226 lung): > 100 µM | TGI (NCI/ADR-RES ovarian): > 100 µM | TGI (HCC-2998 colon): > 100 µM | TGI (U251 CNS): > 100 µM | TGI (NCI-H23 lung): > 100 µM | TGI (HCT-15 colon): > 100 µM | TGI (HS 578T breast): > 100 µM | TGI (TK-10 renal): > 100 µM | TGI (SF-268 CNS): > 100 µM | TGI (MDA-MB-435): > 100 µM | TGI (IGROV1 ovarian): > 100 µM | TGI (SF-539 CNS): > 100 µM | TGI (SK-MEL-28 melanoma): > 100 µM | TGI (OVCAR-3 ovarian): > 100 µM | TGI (EKVX NSCLC): > 100 µM | TGI (UACC-257 melanoma): 91.3 µM | TGI (HOP-62 NSCLC): > 100 µM | TGI (HCT-116 colon): > 100 µM | TGI (HT29 colon): > 100 µM | TGI (UO-31 renal): > 100 µM | TGI (SK-MEL-5 melanoma): > 100 µM | TGI (786-0 renal): > 100 µM | TGI (K-562 leukemia): > 100 µM | TGI (KM12 colon): > 100 µM | TGI (SK-MEL-2 melanoma): > 100 µM | TGI (M14 melanoma): > 100 µM | TGI (UACC-62 melanoma): > 100 µM | TGI (COLO 205 colon): > 100 µM | TGI (NCI-H460 lung): > 100 µM | TGI (SF-295 CNS): > 100 µM | TGI (ACHN renal): > 100 µM | TGI (MDA-MB-231 breast): > 100 µM | TGI (MOLT-4 leukemia): > 100 µM | TGI (CCRF-CEM leukemia): > 100 µM | TGI (SNB-75 CNS): > 100 µM | TGI (OVCAR-5 ovarian): > 100 µM | TGI (A549 NSCLC): > 100 µM | TGI (SR leukemia): > 100 µM | TGI (DU-145 prostate): > 100 µM | TGI (BT-549 breast): > 100 µM | TGI (T-47D breast): > 100 µM | TGI (SN12C renal): > 100 µM | TGI (RXF 393 renal): > 100 µM | TGI (RPMI-8226 leukemia): > 100 µM | TGI (OVCAR-8 ovarian): > 100 µM | TGI (OVCAR-4 ovarian): > 100 µM | TGI (CAKI-1 renal): > 100 µM | TGI (SW-620 colon): > 100 µM | TGI (SK-OV-3 ovarian): > 100 µM | TGI (SNB-19 CNS): > 100 µM

Reference: PubChem BioAssay (NCI)
